# Experimental data as given in patent US11254640B2, “N-substituted indoles and other heterocycles for treating brain disorders” (The Regents of the University of California, priority 2019, dated 2022).
# “Also recorded” adds a separate entry of the source.
# System: 5HT2A sensor
# Test: 5HT2A sensor assay, agonist mode (sLight1.3s HEK293T stable line)
# Format: cell-based
# Details: 10 μM of compound (FIG. 11)
# Protocol: In some embodiments, hallucinogenic potential of a compound of the present invention is determined in vitro. In some embodiments, hallucinogenic potential of a compound of the present invention is determined using a 5HT2A sensor assay. In some embodiments, the 5HT2A sensor assay is in an agonist mode or an antagonist mode. In some embodiments, the 5HT2A sensor assay is in an agonist mode.
# (§1) 5HT2A Sensor Assays. HEK293T (ATCC) 5HT2A sensor stable line (sLight1.3s) was generated via lentiviral transduction of HIV-EF1α-sLight1.3 and propagated from a single colony. Lentivirus was produced using 2nd generation lentiviral plasmids pHIV-EF1α-sLight1.3, pHCMV-G, and pCMV-deltaR8.2.
# (§2) For the screening of the 41 compounds, sLight1.3s cells were plated in 96-well plates at a density of 40000 24-hours prior to imaging. On the day of imaging, compounds solubilized in DMSO were diluted from the 100 mM stock solution to working concentrations of 1 mM, 100 μM and 1 μM with a DMSO concentration of 1%. Immediately prior to imaging, cells growing in DMEM (Gibco) were washed 2× with HBSS (Gibco) and in agonist mode 180 μL of HBSS or in antagonist mode 160 μL of HBSS was added to each well after the final wash. For agonist mode, images were taken before and after the addition of the 20 μL compound working solution into the wells containing 180 μL HBSS. This produced final compound concentrations of 100 μM, 10 μM and 100 nM with a DMSO concentration of 0.1%. For antagonist mode, images were taken before and after addition of 20 μL of 900 nM 5-HT and again after 20 μL of the compound working solutions to produce final concentrations of 100 nM for 5HT and 100 μM, 10 μM and 100 nM for the compounds with a DMSO concentration of 0.1%. Each compound was tested in triplicates (3 wells) for each concentration (100 μM, 10 μM and 100 nM). Additionally, within each plate, 100 nM 5HT and 0.1% DMSO controls were also imaged.
# (§3) Imaging was performed using the Leica DMi8 inverted microscope with a 40× objective using the FITC preset with an excitation of 460 nm and emission of 512-542 nm. For each well, the cellular membrane where the 5HT2A sensor is targeted was autofocused using the adaptive focus controls and 5 images from different regions within the well were taken with each image processed from a 2×2 binning.
# (§4) For data processing, the membranes from each image was segmented and analyzed using a custom algorithm written in MATLAB producing a single raw fluorescence intensity value. For each well the 5 raw fluorescence intensity values generated from the 5 images were averaged and the change in fluorescence intensity (dFF) was calculated as: dFF=(Fsat−Fapo)/Fapo
# (§5) For both agonist and antagonist modes, the fluorescence intensity values before compound addition in HBSS only were used as the Fapo values while the fluorescence intensity values after compound addition were used as the Fsat values.
# (§6) For agonist mode, data are as percent activation relative to 5HT, where 0 is the average of the DMSO wells and 100 is the average of the 100 uM 5HT wells. For antagonist mode, the inactivation score was calculated as: Inactivation score=(dFFF(Compound+5HT)−dFF(5HT))/dFF(5HT)
row,SMILES,activation of 5HT2A sensor assay in agonist mode at 10 μM
1,"CCN(CC)C(=O)[C@@H]1C=C2c3cccc4[nH]c(Br)c(c34)C[C@H]2N(C)C1 [BOL148, reference compound]",do not activate the 5HT2A sensor assay in agonist mode
2,"COc1cc(CC(C)N)c(OC)cc1I (stereo not shown) [DOI, reference compound]",activate the 5HT2A sensor assay in agonist mode
3,"CN(C)CCc1c[nH]c2ccccc12 [Example 1, N,N-dimethyltryptamine, reference compound]",activate the 5HT2A sensor assay in agonist mode
4,"CCN(CC)CCc1c[nH]c2cc(F)ccc12 [Example 6-F-DET, reference compound]",do not activate the 5HT2A sensor assay in agonist mode
5,"O=C(c1ccc(F)cc1)C1CCN(CCn2c(=O)[nH]c3ccccc3c2=O)CC1 [Ketanserin, reference compound]",do not activate the 5HT2A sensor assay in agonist mode
6,"CNC(C)Cc1ccc2c(c1)OCO2 [L-MDMA, reference compound]",do not activate the 5HT2A sensor assay in agonist mode
7,"CCN(CC)C(=O)[C@@H]1C=C2c3cccc4[nH]cc(c34)C[C@H]2N(C)C1 [LSD, lysergic acid diethylamide, reference compound]",activate the 5HT2A sensor assay in agonist mode
8,"CN[C@H](C)Cc1ccc2c(c1)OCO2 [R-MDMA, reference compound]",do not activate the 5HT2A sensor assay in agonist mode

# Same assay, conditions: dose response (FIG. 10)
row,SMILES,activation of 5HT2A sensor assay in agonist mode (dose response)
1,"CCN(CC)C(=O)[C@@H]1C=C2c3cccc4[nH]cc(c34)C[C@H]2N(C)C1 [LSD, lysergic acid diethylamide, reference compound]",activate

# System: 5HT2A sensor
# Test: 5HT2A sensor assay, antagonist mode (sLight1.3s HEK293T stable line)
# Format: cell-based
# Details: 10 μM of compound (FIG. 13)
# Protocol: In some embodiments, the 5HT2A sensor assay is in an antagonist mode.
# as §1, §2, §3, §4, §5, §6
row,SMILES,"competition with 5HT binding to 5HT2A, antagonist mode sensor assay at 10 μM"
1,"CCN(CC)C(=O)[C@@H]1C=C2c3cccc4[nH]c(Br)c(c34)C[C@H]2N(C)C1 [BOL148, reference compound]",compete with 5HT binding to 5HT2A
2,"CCN(CC)CCc1c[nH]c2cc(F)ccc12 [Example 6-F-DET, reference compound]",compete with 5HT binding to 5HT2A
3,"O=C(c1ccc(F)cc1)C1CCN(CCn2c(=O)[nH]c3ccccc3c2=O)CC1 [Ketanserin, reference compound]",compete with 5HT binding to 5HT2A

# System: cortical neurons
# Test: Dendritogenesis assay, Sholl analysis
# Format: cell-based, rat
# Details: Rattus norvegicus, Cortical neurone; 10 μM; Nmax with vehicle (DMSO) = 0% and ketamine = 100%; read-out: % efficacy in sholls
# Excerpt: Dendritogenesis Assays. Phenotypic screening has historically proven more successful than target-based approaches for identifying drugs with novel mechanisms of action. Having established a simple and robust method for accessing isoDMT analogs, tested next was their ability to increase dendritic arbor complexity in cultures of cortical neurons using a phenotypic assay. Following treatment, neurons were fixed and visualized using an antibody against MAP2—a cytoskeletal protein localized to the somatodendritic compartment of neurons. Sholl analysis was then performed, and the maximum number of crossings (Nmax) was used as a quantitative metric of dendritic arbor complexity. For statistical comparisons between specific compounds, the raw Nmax values were compared. Percent efficacies were determined by setting the Nmax values for the vehicle (DMSO) and positive (ketamine) controls equal to 0% and 100%, respectively.
# Animals. For the dendritogenesis experiments, timed pregnant Sprague Dawley rats were obtained from Charles River Laboratories (Wilmington, Mass.). For the head-twitch response assay, male and female C57BL/6J mice were obtained from Jackson Laboratory (Sacramento, Calif.). Mice were housed in a temperature and humidity-controlled room maintained on a 12-h light/dark cycle in groups of 4-5 (same sex). Animals weighed between 17 and 30 g at the time of the experiments. All experimental procedures involving rodents were approved by the UC Davis Institutional Animal Care and Use Committee (IACUC) and adhered to principles described in the National Institutes of Health Guide for the Care and Use of Laboratory Animals. The University of California, Davis and the University of California, San Francisco are accredited by the Association for Assessment and Accreditation of Laboratory Animal Care International (AAALAC).
# Dendritogenesis—Sholl Analysis. Dendritogenesis experiments were performed following a previously published method with slight modifications. Neurons were plated in 96-well format (200 μL of media per well) at a density of approximately 15,000 cells/well in Neurobasal (Life Technologies) containing 1% penicillin-streptomycin, 10% heat-inactivated fetal bovine serum, and 0.5 mM glutamine. After 24 h, the medium was replaced with Neurobasal containing 1× B27 supplement (Life Technologies), 1% penicillin-streptomycin, 0.5 mM glutamine, and 12.5 μM glutamate. After 3 days in vitro (DIV3), the cells were treated with compounds. All compounds tested in the dendritogenesis assays were treated at 10 μM unless noted otherwise. Stock solutions of the compounds in DMSO were first diluted 100-fold in Neurobasal before an additional 10-fold dilution into each well (total dilution=1:1000; 0.1% DMSO concentration). Treatments were randomized. After 1 h, the media was removed and replaced with new Neurobasal media containing 1× B27 supplement, 1% penicillin-streptomycin, 0.5 mM glutamine, and 12.5 μM glutamate. The cells were allowed to grow for an additional 71 h. At that time, neurons were fixed by removing 80% of the media and replacing it with a volume of 4% aqueous paraformaldehyde (Alfa Aesar) equal to 50% of the working volume of the well. Then, the cells were incubated at room temperature for 20 min before the fixative was aspirated and each well washed twice with DPBS. Cells were permeabilized using 0.2% Triton X-100 (ThermoFisher) in DPBS for 20 minutes at room temperature without shaking. Plates were blocked with antibody diluting buffer (ADB) containing 2% bovine serum albumin (BSA) in DPBS for 1 h at room temperature. Then, plates were incubated overnight at 4° C. with gentle shaking in ADB containing a chicken anti-MAP2 antibody (1:10,000; EnCor, CPCA-MAP2). The next day, plates were washed three times with DPBS and once with 2% ADB in DPBS. […]
row,SMILES,Emax at 10 µM
1,"CN(C)CCc1c[nH]c2ccccc12 [Example 1, N,N-dimethyltryptamine, reference compound]",79%
2,"CN(C)CCn1ccc2c(OCc3ccccc3)cccc21 [Example 8, 2-(4-(benzyloxy)-1H-indol-1-yl)-N,N-dimethylethan-1-amine]",38%
3,"CN(C)CCn1ccc2cc(OCc3ccccc3)ccc21 [Example 9, 2-(5-(benzyloxy)-1H-indol-1-yl)-N,N-dimethylethan-1-amine]",78%
4,"CN(C)CCn1ccc2ccc(OCc3ccccc3)cc21 [Example 10, 2-(6-(benzyloxy)-1H-indol-1-yl)-N,N-dimethylethan-1-amine]",65%
5,"CN(C)CCn1ccc2cccc(OCc3ccccc3)c21 [Example 11, 2-(7-(benzyloxy)-1H-indol-1-yl)-N,N-dimethylethan-1-amine]",131%
6,"CN(C)CCn1ccc2c(F)cccc21 [Example 12, 2-(4-fluoro-1H-indol-1-yl)-N,N-dimethylethan-1-amine]",37%
7,"CN(C)CCn1ccc2cc(F)ccc21 [Example 13, 2-(5-fluoro-1H-indol-1-yl)-N,N-dimethylethan-1-amine]",75%
8,"CN(C)CCn1ccc2cccc(F)c21 [Example 15, 2-(7-fluoro-1H-indol-1-yl)-N,N-dimethylethan-1-amine]",85%
9,"CN(C)CCn1ccc2cc(F)c(F)cc21 [Example 17, 2-(5,6-difluoro-1H-indol-1-yl)-N,N-dimethylethan-1-amine]",84%
10,"CN(C)CCn1ccc2c(F)cc(F)cc21 [Example 18, 2-(4,6-difluoro-1H-indol-1-yl)-N,N-dimethylethan-1-amine]",62%
11,"CN(C)CCn1cc(C(=O)C(=O)N(C)C)c2ccccc21 [Example 21, 2-(1-(2-(dimethylamino)ethyl)-1H-indol-3-yl)-N,N-dimethyl-2-oxoacetamide]",72%
12,"CN(C)CCn1cccc1 [Example 23, N,N-dimethyl-2-(1H-pyrrol-1-yl)ethan-1-amine]",64%
13,"CC(C)CCn1ccc2ccccc21 [Example 25, 1-isopentyl-1H-indole]",17%
14,"CN(C)CCc1cn(C)c2ccccc12 [Example 27, N,N-dimethyl-2-(1-methyl-1H-indol-3-yl)ethan-1-amine, reference compound]",73%
15,"CN(C)CCc1c[nH]c2cc(F)ccc12 [Example 29, 2-(6-fluoro-1H-indol-3-yl)-N,N-dimethylethan-1-amine, reference compound]",81%
16,"COc1ccc2c(ccn2C[C@@H](C)N(C)C)c1 [Example 32, (R)-1-(5-methoxy-1H-indol-1-yl)-N,N-dimethylpropan-2-amine]",88%
17,"C[C@H](Cn1ccc2cc(F)ccc21)N(C)C [Example 33, (R)-1-(5-fluoro-1H-indol-1-yl)-N,N-dimethylpropan-2-amine]",65%

# Same assay, conditions: cortical neurons, 10 μM
row,SMILES,dendritic arbor complexity / neuronal growth (Nmax of Sholl plots)
1,"CN(C)CCn1ccc2cc(F)ccc21 [Example 13, 2-(5-fluoro-1H-indol-1-yl)-N,N-dimethylethan-1-amine]",performed identically to 28 and 29
2,"CN(C)CCn1cc(C(=O)C(=O)N(C)C)c2ccccc21 [Example 21, 2-(1-(2-(dimethylamino)ethyl)-1H-indol-3-yl)-N,N-dimethyl-2-oxoacetamide]",well tolerated
3,"CN(C)CCn1cccc1 [Example 23, N,N-dimethyl-2-(1H-pyrrol-1-yl)ethan-1-amine]",minimal effect on the ability of these molecules to promote neuronal growth
4,"CC(C)CCn1ccc2ccccc21 [Example 25, 1-isopentyl-1H-indole]",did not promote dendritogenesis
5,"CN(C)CCc1cn(C)c2ccccc12 [Example 27, N,N-dimethyl-2-(1-methyl-1H-indol-3-yl)ethan-1-amine, reference compound]",increase dendritic arbor complexity to a comparable extent as DMT (1); also recorded: increased dendritic arbor complexity to a comparable extent as 1
